Results published in ChEMBL document CHEMBL1201861, “Genomics of Drug Sensitity in Cancer screening data, Wellcome Trust Sanger Institute”.

What was measured:
Format in all cases: functional, cell-based
[1] = tested on: Daudi; experiment: cells; conditions: Homo sapiens;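 also: growth inhibition of Daudi cells, read out by a viability assay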
Description: SANGER: Inhibition of human Daudi cell growth in a cell viability assay.

[2] = tested on: ECC12; experiment: cells; conditions: Homo sapiens
Description: SANGER: Inhibition of human ECC12 cell growth in a cell viability assay.

[3] = tested on: ECC4; experiment: cells; conditions: Homo sapiens;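 also: growth inhibition of ECC4 cells, read out with a cell viability assay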
Description: SANGER: Inhibition of human ECC4 cell growth in a cell viability assay.

[4] = tested on: EW-12; experiment: SANGER: Inhibition of human EW-12 cell growth in a cell viability assay.
[5] = tested on: HCC1599; experiment: cells; conditions: Homo sapiens;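 also: growth inhibition of HCC1599 cells, read out in a cell viability assay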
Description: SANGER: Inhibition of human HCC1599 cell growth in a cell viability assay.

[6] = tested on: K052; experiment: cells; conditions: Homo sapiens;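 also: Read-out from a cell viability assay, IC50 reflecting suppression of K052 cell growth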
Description: SANGER: Inhibition of human K052 cell growth in a cell viability assay.

[7] = tested on: KARPAS-422; experiment: cells; conditions: Homo sapiens
Description: SANGER: Inhibition of human KARPAS-422 cell growth in a cell viability assay.

[8] = tested on: L-540; experiment: cells; conditions: Homo sapiens;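 also: growth inhibition of the human L-540 cell line, read out with a viability assay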
Description: SANGER: Inhibition of human L-540 cell growth in a cell viability assay.

[9] = tested on: LB647-SCLC; experiment: cells; conditions: Homo sapiens;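 also: cell growth inhibition, read out by a viability assay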
Description: SANGER: Inhibition of human LB647-SCLC cell growth in a cell viability assay.

[10] = tested on: LP-1; experiment: cells; conditions: Homo sapiens;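 also: growth inhibition of human LP-1 cells, with the read-out taken from a cell viability assay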
Description: SANGER: Inhibition of human LP-1 cell growth in a cell viability assay.

[11] = tested on: LU-165; experiment: cells; conditions: Homo sapiens
Description: SANGER: Inhibition of human LU-165 cell growth in a cell viability assay.

[12] = tested on: MC-CAR; experiment: cells; conditions: Homo sapiens;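 also: growth inhibition of the human MC-CAR cell line, read out by a cell viability assay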
Description: SANGER: Inhibition of human MC-CAR cell growth in a cell viability assay.

[13] = tested on: MDA-MB-134-VI; experiment: cells; conditions: Homo sapiens
Description: SANGER: Inhibition of human MDA-MB-134-VI cell growth in a cell viability assay.

[14] = tested on: MRK-nu-1; experiment: cells; conditions: Homo sapiens;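 also: cell viability assay measuring growth suppression of human MRK-nu-1 cells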
Description: SANGER: Inhibition of human MRK-nu-1 cell growth in a cell viability assay.

[15] = tested on: NB1; experiment: cells; conditions: Homo sapiens;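 also: reduction of NB1 cell proliferation, read out with a viability assay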
Description: SANGER: Inhibition of human NB1 cell growth in a cell viability assay.

[16] = tested on: NCI-H128; experiment: SANGER: Inhibition of human NCI-H128 cell growth in a cell viability assay.
[17] = tested on: NCI-H1417; experiment: cells; conditions: Homo sapiens;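 also: human NCI-H1417 cells, growth inhibition determined with a cell viability readout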
Description: SANGER: Inhibition of human NCI-H1417 cell growth in a cell viability assay.

[18] = tested on: NCI-H1522; experiment: cells; conditions: Homo sapiens;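 also: growth inhibition of NCI-H1522 cells, read out with a cell viability assay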
Description: SANGER: Inhibition of human NCI-H1522 cell growth in a cell viability assay.

[19] = tested on: NCI-H1963; experiment: cells; conditions: Homo sapiens
Description: SANGER: Inhibition of human NCI-H1963 cell growth in a cell viability assay.

[20] = tested on: NCI-H2141; experiment: cells; conditions: Homo sapiens;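 also: growth inhibition of human NCI-H2141 cells, read out with a cell viability assay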
Description: SANGER: Inhibition of human NCI-H2141 cell growth in a cell viability assay.

[21] = tested on: NCI-H2196; experiment: cells; conditions: Homo sapiens;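 also: cell viability assay used as the readout of growth inhibition in NCI-H2196 cells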
Description: SANGER: Inhibition of human NCI-H2196 cell growth in a cell viability assay.

[22] = tested on: NCI-H748; experiment: cells; conditions: Homo sapiens;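 also: growth inhibition of NCI-H748 cells, measured by a cell viability assay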
Description: SANGER: Inhibition of human NCI-H748 cell growth in a cell viability assay.

[23] = tested on: P31-FUJ; experiment: cells; conditions: Homo sapiens;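 also: growth inhibition of P31-FUJ cells, read out with a viability assay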
Description: SANGER: Inhibition of human P31-FUJ cell growth in a cell viability assay.

[24] = tested on: RPMI 8402; experiment: SANGER: Inhibition of human RPMI-8402 cell growth in a cell viability assay.
[25] = tested on: SKM-1; experiment: SANGER: Inhibition of human SKM-1 cell growth in a cell viability assay.
[26] = tested on: SR; experiment: cells; conditions: Homo sapiens
Description: SANGER: Inhibition of human SR cell growth in a cell viability assay.

[27] = tested on: BC1 cell line; experiment: SANGER: Inhibition of human BC-1 cell growth in a cell viability assay.
[28] = tested on: BL-41; experiment: cells; conditions: Homo sapiens;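 also: growth inhibition of human BL-41 cells, read out with a cell viability assay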
Description: SANGER: Inhibition of human BL-41 cell growth in a cell viability assay.

[29] = tested on: TUR; experiment: cells; conditions: Homo sapiens;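 also: growth inhibition of human TUR cells, read out with a cell viability assay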
Description: SANGER: Inhibition of human TUR cell growth in a cell viability assay.

[30] = tested on: WSU-NHL; experiment: cells; conditions: Homo sapiens;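 also: growth inhibition of human WSU-NHL cells, read out with a cell viability assay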
Description: SANGER: Inhibition of human WSU-NHL cell growth in a cell viability assay.

Structure (SMILES) | IC50 [1] [µM] | IC50 [3] [µM] | IC50 [4] [µM] | IC50 [5] [µM] | IC50 [7] [µM] | IC50 [8] [µM] | IC50 [9] [µM] | IC50 [10] [µM] | IC50 [11] [µM] | IC50 [12] [µM] | IC50 [13] [µM] | IC50 [14] [µM] | IC50 [15] [µM] | IC50 [16] [µM] | IC50 [17] [µM] | IC50 [18] [µM] | IC50 [19] [µM] | IC50 [20] [µM] | IC50 [21] [µM] | IC50 [22] [µM] | also measured
C=C1C(=O)O[C@@H]2C3O[C@]3(C)CC/C=C(\C)CC[C@@H]12 (stereo partly drawn) | > 5 | > 5 | > 5 | > 5 | > 5 | > 5 | > 5 | > 5 | > 5 | > 5 | > 5 | 2.01 | > 5 | > 5 | > 5 | > 5 | > 5 | > 5 | 0.645 | > 5 | IC50 [2]: > 5 µM; IC50 [6]: > 5 µM; IC50 [23]: > 5 µM; IC50 [24]: > 5 µM; IC50 [25]: > 5 µM; IC50 [26]: > 5 µM; IC50 [27]: > 5 µM; IC50 [28]: > 5 µM; IC50 [29]: > 5 µM; IC50 [30]: > 5 µM
CC1=C2C[C@H]3[C@@H](CC=C4C[C@@H](O)CC[C@@]43C)[C@@H]2CC[C@]12O[C@@H]1C[C@H](C)CN[C@H]1[C@H]2C [CYCLOPAMINE] | > 16 | > 16 | > 16 | > 16 | > 16 | > 16 | > 16 | > 16 | > 16 | > 16 | > 16 | > 16 | > 16 | > 16 | > 16 | > 16 | > 16 | > 16 | > 16 | > 16 | IC50 [2]: > 16 µM; IC50 [6]: > 16 µM; IC50 [23]: > 16 µM; IC50 [24]: 15.9 µM; IC50 [25]: > 16 µM; IC50 [26]: > 16 µM; IC50 [27]: > 16 µM; IC50 [28]: > 16 µM; IC50 [29]: > 16 µM; IC50 [30]: > 16 µM
CS(=O)(=O)CCNCc1ccc(-c2ccc3ncnc(Nc4ccc(OCc5cccc(F)c5)c(Cl)c4)c3c2)o1 [LAPATINIB] | > 2 | > 2 | > 2 | > 2 | > 2 | > 2 | > 2 | > 2 | > 2 | > 2 | > 2 | > 2 | > 2 | > 2 | > 2 | > 2 | > 2 | > 2 | > 2 | > 2 | IC50 [2]: 0.0923 µM; IC50 [23]: > 2 µM; IC50 [24]: > 2 µM; IC50 [25]: > 2 µM; IC50 [26]: > 2 µM; IC50 [27]: > 2 µM; IC50 [28]: > 2 µM; IC50 [29]: > 2 µM; IC50 [30]: > 2 µM
CCc1nc(N)nc(N)c1-c1ccc(Cl)cc1 [PYRIMETHAMINE] | > 20 | > 20 | > 20 | > 20 | 18.2 | 10.5 | > 20 | > 20 | > 20 | > 20 | > 20 | > 20 | > 20 | > 20 | > 20 | > 20 | > 20 | > 20 | > 20 | > 20 | IC50 [2]: 2.56 µM; IC50 [6]: > 20 µM; IC50 [23]: > 20 µM; IC50 [24]: 8.12 µM; IC50 [25]: > 20 µM; IC50 [26]: 16.5 µM; IC50 [27]: 5.1 µM; IC50 [28]: > 20 µM; IC50 [29]: > 20 µM; IC50 [30]: > 20 µM
O=C(/C=C/c1ccccc1)NC(NC(=S)Nc1cccc2cccnc12)C(Cl)(Cl)Cl (stereo not drawn) [SALUBRINAL] | 6.34 | > 16 | > 16 | 12.1 | > 16 | 16 | > 16 | 3.37 | > 16 | > 16 | > 16 | 7.75 | > 16 | > 16 | > 16 | > 16 | > 16 | > 16 | > 16 | > 16 | IC50 [2]: > 16 µM; IC50 [6]: > 16 µM; IC50 [23]: > 16 µM; IC50 [24]: > 16 µM; IC50 [25]: > 16 µM; IC50 [26]: > 16 µM; IC50 [27]: 15.2 µM; IC50 [28]: 9.78 µM; IC50 [29]: > 16 µM; IC50 [30]: > 16 µM
CNC(=O)c1cc(Oc2ccc(NC(=O)Nc3ccc(Cl)c(C(F)(F)F)c3)cc2)ccn1 [SORAFENIB] | > 4 | > 4 | > 4 | > 4 | > 4 | 2.76 | > 4 | > 4 | > 4 | > 4 | > 4 | 3.61 | > 4 | > 4 | > 4 | > 4 | > 4 | > 4 | > 4 | > 4 | IC50 [2]: > 4 µM; IC50 [6]: 2.75 µM; IC50 [23]: > 4 µM; IC50 [24]: > 4 µM; IC50 [25]: > 4 µM; IC50 [26]: > 4 µM; IC50 [27]: 3.74 µM; IC50 [28]: > 4 µM; IC50 [29]: > 4 µM; IC50 [30]: > 4 µM
Cc1cc(Nc2cc(N3CCN(C)CC3)nc(Sc3ccc(NC(=O)C4CC4)cc3)n2)n[nH]1 [TOZASERTIB] | > 2 | > 2 | > 2 | 0.809 | 0.373 | > 2 | 0.215 | > 2 | > 2 | > 2 | > 2 | 0.381 | > 2 | > 2 | > 2 | > 2 | 1.71 | > 2 | > 2 | > 2 | IC50 [6]: 0.195 µM; IC50 [23]: > 2 µM; IC50 [24]: > 2 µM; IC50 [25]: > 2 µM; IC50 [26]: 0.246 µM; IC50 [27]: > 2 µM; IC50 [28]: 0.104 µM; IC50 [29]: > 2 µM; IC50 [30]: > 2 µM
